A word on the solubility: it is the concentration that dissolves in the medium under given conditions. High values mean a readily soluble substance, low ones a poorly soluble substance.

No end group written: not given here. *: point of attachment. undeca‑saccharide = not defined here; Decanoyl = CCCCCCCCCC(=O)* Some results are limits rather than exact numbers.

These results are taken from patent US20220323548A1 (priority 2019, published 2022).

Data set [1] has as its system rat islets. Put plainly: Glucose-dependent insulin secretion from rat islets, rat insulin ELISA (part I). It counts as cell-based. The following applies: 28 mM glucose. (In general: In an ELISA, binding on a coated surface is turned into a signal by an enzyme label.)
Text: Specifically, the pancreas of 8-week-old SD rats (Damul Science) was extracted, and islets were isolated.
For data set [2], the target named is human GLP-1R (Homo sapiens, UniProt P43220). The experiment in a line: GLP-1 receptor luciferase reporter assay (part I, glycosylated analogs). The format is cell-based. The following applies: CV-1 cells transfected with human GLP-1R and CRE, Table 2. For orientation: In a reporter assay the amount or activity of a reporter protein is the signal.
Chain of human GLP-1R (Homo sapiens, UniProt P43220) (P43220 24-463): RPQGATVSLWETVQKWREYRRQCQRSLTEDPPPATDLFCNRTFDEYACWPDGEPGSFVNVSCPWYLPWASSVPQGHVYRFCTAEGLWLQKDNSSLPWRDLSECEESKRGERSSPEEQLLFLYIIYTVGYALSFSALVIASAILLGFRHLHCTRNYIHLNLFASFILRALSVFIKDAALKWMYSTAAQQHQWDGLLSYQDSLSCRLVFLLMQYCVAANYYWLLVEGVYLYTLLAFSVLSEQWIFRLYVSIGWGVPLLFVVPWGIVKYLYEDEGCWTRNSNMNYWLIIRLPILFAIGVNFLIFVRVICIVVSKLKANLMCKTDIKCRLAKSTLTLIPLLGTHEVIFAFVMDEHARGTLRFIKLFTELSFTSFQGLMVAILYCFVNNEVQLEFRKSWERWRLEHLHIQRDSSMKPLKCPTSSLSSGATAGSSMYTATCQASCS
Experimental: Specifically, the fibroblast cell line CV-1 (1×10^4 cells/ml, Korea Cell Line Bank) was cultured on a 96-well white cell culture plate for 24 hours, and then human GLP-1R (pcDNA3.1_hGLP-1R) and cAMP response element (CRE, pcDNA3.1_hCRE) were added to perform transfection. After 24 hours, the medium was exchanged with a serum-free medium, followed by culture for 16 hours, and then each analog was treated for 6 hours. The expression level of luciferase, a reporter gene, by activated GLP-1R, was quantified by a luminometer, and the results are shown in Table 2.
Data set [3] in a line: Solubility by HPLC. The format is physicochemical. Particulars: at 10 mg/ml.
Data set [4] deals with human GLP-1R (human, UniProt P43220 24-463). Put plainly: cell-based or functional assay.

With `CCCCCCCCCC(=O)NCCCC[C@H](NC(=O)[C@H](CO)NC(=O)[C@@H]1CCCN1C(=O)CNC(=O)CNC(=O)[C@H](CC(N)=O)NC(=O)[C@H](CCCCN)NC(=O)[C@H](CC(C)C)NC(=O)[C@H](Cc1c[nH]c2ccccc12)NC(=O)[C@H](CCC(=O)O)NC(=O)[C@@H](NC(=O)[C@H](Cc1ccccc1)NC(=O)[C@H](CC(C)C)NC(=O)[C@H](CCCNC(=N)N)NC(=O)[C@@H](NC(=O)[C@H](C)NC(=O)[C@H](CSCC(=O)N[C@@H]1O[C@H](CO)[C@@H](O[C@@H]2O[C@H](CO)[C@@H](O[C@@H]3O[C@H](CO[C@H]4O[C@H](CO)[C@@H](O)[C@H](O)[C@@H]4O[C@@H]4O[C@H](CO)[C@@H](O[C@@H]5O[C@H](CO[C@]6(C(=O)OCc7ccccc7)C[C@H](O)[C@@H](NC(C)=O)[C@H]([C@H](O)[C@H](O)CO)O6)[C@H](O)[C@H](O)[C@H]5O)[C@H](O)[C@H]4NC(C)=O)[C@@H](O)[C@H](O[C@H]4O[C@H](CO)[C@@H](O)[C@H](O)[C@@H]4O[C@@H]4O[C@H](CO)[C@@H](O[C@@H]5O[C@H](CO[C@]6(C(=O)OCc7ccccc7)C[C@H](O)[C@@H](NC(C)=O)[C@H]([C@H](O)[C@H](O)CO)O6)[C@H](O)[C@H](O)[C@H]5O)[C@H](O)[C@H]4NC(C)=O)[C@@H]3O)[C@H](O)[C@H]2NC(C)=O)[C@H](O)[C@H]1NC(C)=O)NC(=O)[C@H](CCC(=O)O)NC(=O)[C@H](CCC(=O)O)NC(=O)[C@H](CCSC)NC(=O)[C@H](CCC(N)=O)NC(=O)[C@H](CCCCN)NC(=O)[C@H](CO)NC(=O)[C@H](CC(C)C)NC(=O)[C@H](CC(=O)O)NC(=O)[C@H](CO)NC(=O)[C@@H](NC(=O)[C@H](Cc1ccccc1)NC(=O)[C@@H](NC(=O)CNC(=O)[C@H](CCC(=O)O)NC(=O)CNC(=O)[C@@H](N)Cc1c[nH]cn1)[C@@H](C)O)[C@@H](C)O)C(C)C)[C@@H](C)CC)C(=O)O` [AGM-212(E17C-11 sugar)], the “Insulin secretion from rat islets” value in data set [1] (10 nM analog, Table 3) was determined as 7895.09 ± 2457.36 pg/mL; in data set [1] (100 nM analog, Table 3), 9523.02 ± 2852.08 pg/mL. Besides, the “Emax (fold induction over basal)” value in data set [2] came out at 10.1 ± 1.2 fold induction over basal.

For the molecule `CCCCCCCCCC(=O)NCCCC[C@H](NC(=O)[C@H](CO)NC(=O)[C@@H]1CCCN1C(=O)CNC(=O)CNC(=O)[C@H](CC(N)=O)NC(=O)[C@H](CCCCN)NC(=O)[C@H](CC(C)C)NC(=O)[C@H](Cc1c[nH]c2ccccc12)NC(=O)[C@H](CSCC(=O)N[C@@H]1O[C@H](CO)[C@@H](O[C@@H]2O[C@H](CO)[C@@H](O[C@@H]3O[C@H](CO[C@H]4O[C@H](CO)[C@@H](O)[C@H](O)[C@@H]4O[C@@H]4O[C@H](CO)[C@@H](O[C@@H]5O[C@H](CO[C@]6(C(=O)OCc7ccccc7)C[C@H](O)[C@@H](NC(C)=O)[C@H]([C@H](O)[C@H](O)CO)O6)[C@H](O)[C@H](O)[C@H]5O)[C@H](O)[C@H]4NC(C)=O)[C@@H](O)[C@H](O[C@H]4O[C@H](CO)[C@@H](O)[C@H](O)[C@@H]4O[C@@H]4O[C@H](CO)[C@@H](O[C@@H]5O[C@H](CO[C@]6(C(=O)OCc7ccccc7)C[C@H](O)[C@@H](NC(C)=O)[C@H]([C@H](O)[C@H](O)CO)O6)[C@H](O)[C@H](O)[C@H]5O)[C@H](O)[C@H]4NC(C)=O)[C@@H]3O)[C@H](O)[C@H]2NC(C)=O)[C@H](O)[C@H]1NC(C)=O)NC(=O)[C@@H](NC(=O)[C@H](Cc1ccccc1)NC(=O)[C@H](CC(C)C)NC(=O)[C@H](CCCNC(=N)N)NC(=O)[C@@H](NC(=O)[C@H](C)NC(=O)[C@H](CSCC(=O)N[C@@H]1O[C@H](CO)[C@@H](O[C@@H]2O[C@H](CO)[C@@H](O[C@@H]3O[C@H](CO[C@H]4O[C@H](CO)[C@@H](O)[C@H](O)[C@@H]4O[C@@H]4O[C@H](CO)[C@@H](O[C@@H]5O[C@H](CO[C@]6(C(=O)OCc7ccccc7)C[C@H](O)[C@@H](NC(C)=O)[C@H]([C@H](O)[C@H](O)CO)O6)[C@H](O)[C@H](O)[C@H]5O)[C@H](O)[C@H]4NC(C)=O)[C@@H](O)[C@H](O[C@H]4O[C@H](CO)[C@@H](O)[C@H](O)[C@@H]4O[C@@H]4O[C@H](CO)[C@@H](O[C@@H]5O[C@H](CO[C@]6(C(=O)OCc7ccccc7)C[C@H](O)[C@@H](NC(C)=O)[C@H]([C@H](O)[C@H](O)CO)O6)[C@H](O)[C@H](O)[C@H]5O)[C@H](O)[C@H]4NC(C)=O)[C@@H]3O)[C@H](O)[C@H]2NC(C)=O)[C@H](O)[C@H]1NC(C)=O)NC(=O)[C@H](CCC(=O)O)NC(=O)[C@H](CCC(=O)O)NC(=O)[C@H](CCSC)NC(=O)[C@H](CCC(N)=O)NC(=O)[C@H](CCCCN)NC(=O)[C@H](CO)NC(=O)[C@H](CC(C)C)NC(=O)[C@H](CC(=O)O)NC(=O)[C@H](CO)NC(=O)[C@@H](NC(=O)[C@H](Cc1ccccc1)NC(=O)[C@@H](NC(=O)CNC(=O)[C@H](CCC(=O)O)NC(=O)CNC(=O)[C@@H](N)Cc1c[nH]cn1)[C@@H](C)O)[C@@H](C)O)C(C)C)[C@@H](C)CC)C(=O)O` [AGM-212(E17C-11 sugar & E24C-11 sugar)], the “Insulin secretion from rat islets” value in data set [1] (10 nM analog, Table 4) stood at 6763.40 ± 32.83 pg/mL; in data set [1] (100 nM analog, Table 4), 14650.94 ± 3305.28 pg/mL. For the same molecule, the “Emax (fold induction over basal)” value in data set [2] came to 9.7 ± 1.2 fold induction over basal.

Turning to `CCCCCCCCCC(=O)NCCCC[C@H](NC(=O)[C@H](CO)NC(=O)[C@@H]1CCCN1C(=O)CNC(=O)CNC(=O)[C@H](CSCC(=O)N[C@@H]1O[C@H](CO)[C@@H](O[C@@H]2O[C@H](CO)[C@@H](O[C@@H]3O[C@H](CO[C@H]4O[C@H](CO)[C@@H](O)[C@H](O)[C@@H]4O[C@@H]4O[C@H](CO)[C@@H](O[C@@H]5O[C@H](CO[C@]6(C(=O)OCc7ccccc7)C[C@H](O)[C@@H](NC(C)=O)[C@H]([C@H](O)[C@H](O)CO)O6)[C@H](O)[C@H](O)[C@H]5O)[C@H](O)[C@H]4NC(C)=O)[C@@H](O)[C@H](O[C@H]4O[C@H](CO)[C@@H](O)[C@H](O)[C@@H]4O[C@@H]4O[C@H](CO)[C@@H](O[C@@H]5O[C@H](CO[C@]6(C(=O)OCc7ccccc7)C[C@H](O)[C@@H](NC(C)=O)[C@H]([C@H](O)[C@H](O)CO)O6)[C@H](O)[C@H](O)[C@H]5O)[C@H](O)[C@H]4NC(C)=O)[C@@H]3O)[C@H](O)[C@H]2NC(C)=O)[C@H](O)[C@H]1NC(C)=O)NC(=O)[C@H](CCCCN)NC(=O)[C@H](CC(C)C)NC(=O)[C@H](Cc1c[nH]c2ccccc12)NC(=O)[C@H](CCC(=O)O)NC(=O)[C@@H](NC(=O)[C@H](Cc1ccccc1)NC(=O)[C@H](CC(C)C)NC(=O)[C@H](CCCNC(=N)N)NC(=O)[C@@H](NC(=O)[C@H](C)NC(=O)[C@H](CSCC(=O)N[C@@H]1O[C@H](CO)[C@@H](O[C@@H]2O[C@H](CO)[C@@H](O[C@@H]3O[C@H](CO[C@H]4O[C@H](CO)[C@@H](O)[C@H](O)[C@@H]4O[C@@H]4O[C@H](CO)[C@@H](O[C@@H]5O[C@H](CO[C@]6(C(=O)OCc7ccccc7)C[C@H](O)[C@@H](NC(C)=O)[C@H]([C@H](O)[C@H](O)CO)O6)[C@H](O)[C@H](O)[C@H]5O)[C@H](O)[C@H]4NC(C)=O)[C@@H](O)[C@H](O[C@H]4O[C@H](CO)[C@@H](O)[C@H](O)[C@@H]4O[C@@H]4O[C@H](CO)[C@@H](O[C@@H]5O[C@H](CO[C@]6(C(=O)OCc7ccccc7)C[C@H](O)[C@@H](NC(C)=O)[C@H]([C@H](O)[C@H](O)CO)O6)[C@H](O)[C@H](O)[C@H]5O)[C@H](O)[C@H]4NC(C)=O)[C@@H]3O)[C@H](O)[C@H]2NC(C)=O)[C@H](O)[C@H]1NC(C)=O)NC(=O)[C@H](CCC(=O)O)NC(=O)[C@H](CCC(=O)O)NC(=O)[C@H](CCSC)NC(=O)[C@H](CCC(N)=O)NC(=O)[C@H](CCCCN)NC(=O)[C@H](CO)NC(=O)[C@H](CC(C)C)NC(=O)[C@H](CC(=O)O)NC(=O)[C@H](CO)NC(=O)[C@@H](NC(=O)[C@H](Cc1ccccc1)NC(=O)[C@@H](NC(=O)CNC(=O)[C@H](CCC(=O)O)NC(=O)CNC(=O)[C@@H](N)Cc1c[nH]cn1)[C@@H](C)O)[C@@H](C)O)C(C)C)[C@@H](C)CC)C(=O)O` [AGM-212(E17C-11 sugar & N28C-11 sugar)], the “Insulin secretion from rat islets” value amounted to 11250.94 ± 624.53 pg/mL in data set [1] (10 nM analog, Table 4) and 22183.40 ± 830.19 pg/mL in data set [1] (100 nM analog, Table 4). Also, the results for the solubility in data set [3] (H2O) and in data set [3] (PBS) were less than 8300 µg/mL and less than 9500 µg/mL, respectively. Further, in data set [2], the “Emax (fold induction over basal)” value turned out to be 9.8 ± 1.3 fold induction over basal.

As for HGEGTFTSDLSKQMEEC(undeca‑saccharide)AVRLFIEWLKNGGPSK(Decanoyl) (reading uncertain) [AGM-212(E17C-11 sugar)], in data set [4], the “Emax (fold induction over basal), CRE-luciferase reporter” value is 10.1 fold induction over basal.

As to HGEGTFTSDLSKQMEEC(undeca‑saccharide)AVRLFIC(undeca‑saccharide)WLKNGGPSK(Decanoyl) (reading uncertain) [AGM-212(E17C-11 sugar & E24C-11 sugar)], the “Emax (fold induction over basal), CRE-luciferase reporter” value in data set [4] worked out at 9.7 fold induction over basal.

Turning to HGEGTFTSDLSKQMEEC(undeca‑saccharide)AVRLFIEWLKC(undeca‑saccharide)GGPSK(Decanoyl) (reading uncertain) [AGM-212(E17C-11 sugar & N28C-11 sugar)], the “Emax (fold induction over basal), CRE-luciferase reporter” value in data set [4] amounted to 9.8 fold induction over basal.
